From article PMC4006998 (Nature chemical biology, 2009)

Experiments:
[1] = target: CTX-M β-lactamase (Escherichia coli, UniProt Q9L5C8); assay type: biochemical; conditions: Ki AmpC versus Ki CTX-M
[2] = target: T1, AmpC β-lactamase (Escherichia coli, UniProt P00811); conditions: at relevant concentrations; no reference given; cited from earlier work
[3] = target: T1, AmpC β-lactamase; assay type: biochemical; conditions: read-out: Km of nitrocefin for AmpC; substrate; 100 mM Tris-HCl pH 7.0
[4] = system: O=C(Cc1cccs1)N[C@@H]1C(=O)N2C(C(=O)O)=C(/C=C/c3ccc([N+](=O)[O-])cc3[N+](=O)[O-])CS[C@H]12; assay: purified protein, by the assay type; conditions: other: substrate, 100 mM Tris-HCl pH 7.0, 19.0 °C

T1 sequence (P00811 20-377): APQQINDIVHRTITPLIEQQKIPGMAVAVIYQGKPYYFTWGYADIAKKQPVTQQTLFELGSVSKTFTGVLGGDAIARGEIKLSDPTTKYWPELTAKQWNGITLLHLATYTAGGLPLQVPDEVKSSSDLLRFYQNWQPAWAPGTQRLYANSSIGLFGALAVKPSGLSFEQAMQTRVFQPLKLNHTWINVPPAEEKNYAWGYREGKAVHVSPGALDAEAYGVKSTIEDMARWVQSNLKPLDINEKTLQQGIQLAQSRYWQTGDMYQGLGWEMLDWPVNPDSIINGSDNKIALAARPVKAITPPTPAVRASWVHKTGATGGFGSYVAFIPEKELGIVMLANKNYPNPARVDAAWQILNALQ

Compound: O=C(Nc1cccc(-c2nnn[nH]2)c1)c1cccc(F)c1 [Compound 12]
- specificity (CTX-M over AmpC) [1]: over 100 fold

Compound: O=C(O)[C@H]1/C(=C/CO)O[C@@H]2CC(=O)N21 [clavulanate]
- inhibition of AmpC [2]: does not inhibit AmpC at relevant concentrations

Compound: O=C(Cc1cccs1)N[C@@H]1C(=O)N2C(C(=O)O)=C(/C=C/c3ccc([N+](=O)[O-])cc3[N+](=O)[O-])CS[C@H]12 [nitrocefin]
- Km [3]: 400 µM

Compound: CTX-M β-lactamase (Escherichia coli)
- Km [4]: 11.6 µM
